The supplement of paper PMC10307832

What was measured:
Experiment in all cases: relative viability (nuclei count vs DMSO), 5 days (fraction); higher = more cells survive
[1] = system: EKVX
Method in brief: (§1)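 For relative viability, nuclei counts in treated wells were divided by those in vehicle wells. Lung cancer cell lines had been pin-tool dosed in 1536-well plates the day after seeding and cultured for 5 days, then fixed and stained in one step (final 0.05% Triton X-100, 1% formaldehyde, 1 ug/ml Hoechst) and imaged at 4×. Doses were one drug alone or a fixed anchor-drug dose plus five library-drug doses (not always all listed) in √10 steps, and values are duplicate-plate medians.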

[2] = system: NCI-H1563
Method in brief: as §1

[3] = system: EMC-BAC-2
Method in brief: as §1

[4] = system: NCI-H322M
Method in brief: as §1

[5] = system: LK-2
Method in brief: as §1

[6] = system: NCI-H520
Method in brief: as §1

[7] = system: NCI-H727
Method in brief: as §1

[8] = system: CAL-12T
Method in brief: as §1

[9] = system: ABC-1
Method in brief: as §1

[10] = system: NCI-H358
Method in brief: as §1

[11] = system: PC-3 [JPC-3]
Method in brief: as §1

[12] = system: BEN
Method in brief: as §1

[13] = system: NCI-H1651
Method in brief: as §1

[14] = system: NCI-H838
Method in brief: as §1

[15] = system: COR-L 105
Method in brief: as §1

[16] = system: LU99A
Method in brief: as §1

[17] = system: 201T
Method in brief: as §1

[18] = system: NCI-H460
Method in brief: as §1

[19] = system: NCI-H2023
Method in brief: as §1

[20] = system: HCC-44
Method in brief: as §1

[21] = system: HCC-15
Method in brief: as §1

`CCNC(=O)c1noc(-c2cc(C(C)C)c(O)cc2O)c1-c1ccc(CN2CCOCC2)cc1` [Luminespib] + C[C@]1(O)C[C@@H](c2nc(-c3ccc4ccc(-c5ccccc5)nc4c3)c3c(N)nccn32)C1 [Linsitinib] (partner 1 µM) was tested, and the relative viability ([1]; first compound 0.002 µM) was 1, the relative viability ([1]; first compound 0.006325 µM) was 0.989 and the relative viability ([1]; first compound 0.02 µM) was 0.721. The relative viability ([1]; first compound 0.06325 µM) was 0.779, the relative viability ([1]; first compound 0.2 µM) was 0.179 and the relative viability ([2]; first compound 0.002 µM) was 1.34. For the same molecule, the relative viability ([2]; first compound 0.006325 µM) was 1.13, the relative viability ([2]; first compound 0.02 µM) was 1.11 and the relative viability ([2]; first compound 0.06325 µM) was 0.535. For the same molecule, the relative viability ([2]; first compound 0.2 µM) was 0.542, the relative viability ([3]; first compound 0.002 µM) was 0.793 and the relative viability ([3]; first compound 0.006325 µM) was 0.783. For the same molecule, the relative viability ([3]; first compound 0.02 µM) was 0.665, the relative viability ([3]; first compound 0.06325 µM) was 0.788 and the relative viability ([3]; first compound 0.2 µM) was 0.901. It also gave a relative viability ([4]; first compound 0.002 µM) of 0.805, a relative viability ([4]; first compound 0.006325 µM) of 0.851 and a relative viability ([4]; first compound 0.02 µM) of 0.725. For the same molecule, the relative viability ([4]; first compound 0.06325 µM) was 0.998, the relative viability ([4]; first compound 0.2 µM) was 0.963 and the relative viability ([5]; first compound 0.002 µM) was 0.747. It also gave a relative viability ([5]; first compound 0.006325 µM) of 0.522, a relative viability ([5]; first compound 0.02 µM) of 0.455 and a relative viability ([5]; first compound 0.06325 µM) of 0.301. It also gave a relative viability ([5]; first compound 0.2 µM) of 0.109, a relative viability ([6]; first compound 0.002 µM) of 1.27 and a relative viability ([6]; first compound 0.006325 µM) of 0.966. For the same molecule, the relative viability ([6]; first compound 0.02 µM) was 0.94, the relative viability ([6]; first compound 0.06325 µM) was 0.134 and the relative viability ([6]; first compound 0.2 µM) was 0.121. The relative viability ([7]; first compound 0.002 µM) was 0.317, the relative viability ([7]; first compound 0.006325 µM) was 0.258 and the relative viability ([7]; first compound 0.02 µM) was 0.284. For the same molecule, the relative viability ([7]; first compound 0.06325 µM) was 0.221, the relative viability ([7]; first compound 0.2 µM) was 0.211 and the relative viability ([8]; first compound 0.002 µM) was 0.761. For the same molecule, the relative viability ([8]; first compound 0.006325 µM) was 0.787, the relative viability ([8]; first compound 0.02 µM) was 0.72 and the relative viability ([8]; first compound 0.06325 µM) was 0.128. The relative viability ([8]; first compound 0.2 µM) was 0.115, the relative viability ([9]; first compound 0.002 µM) was 0.869 and the relative viability ([9]; first compound 0.006325 µM) was 0.941. It also gave a relative viability ([9]; first compound 0.02 µM) of 0.676, a relative viability ([9]; first compound 0.06325 µM) of 0.257 and a relative viability ([9]; first compound 0.2 µM) of 0.227. It also gave a relative viability ([10]; first compound 0.002 µM) of 0.828, a relative viability ([10]; first compound 0.006325 µM) of 0.654 and a relative viability ([10]; first compound 0.02 µM) of 0.649. The relative viability ([10]; first compound 0.06325 µM) was 0.129, the relative viability ([10]; first compound 0.2 µM) was 0.111 and the relative viability ([11]; first compound 0.002 µM) was 0.963. It also gave a relative viability ([11]; first compound 0.006325 µM) of 0.939, a relative viability ([11]; first compound 0.02 µM) of 0.991 and a relative viability ([11]; first compound 0.06325 µM) of 0.997. For the same molecule, the relative viability ([11]; first compound 0.2 µM) was 0.897, the relative viability ([12]; first compound 0.002 µM) was 0.955 and the relative viability ([12]; first compound 0.006325 µM) was 0.892. The relative viability ([12]; first compound 0.02 µM) was 0.427, the relative viability ([12]; first compound 0.06325 µM) was 0.627 and the relative viability ([12]; first compound 0.2 µM) was 0.252. The relative viability ([13]; first compound 0.002 µM) was 0.874, the relative viability ([13]; first compound 0.006325 µM) was 0.983 and the relative viability ([13]; first compound 0.02 µM) was 1.08. It also gave a relative viability ([13]; first compound 0.06325 µM) of 0.308, a relative viability ([13]; first compound 0.2 µM) of 0.174 and a relative viability ([14]; first compound 0.002 µM) of 1. The relative viability ([14]; first compound 0.006325 µM) was 0.942, the relative viability ([14]; first compound 0.02 µM) was 0.77 and the relative viability ([14]; first compound 0.06325 µM) was 0.13. It also gave a relative viability ([14]; first compound 0.2 µM) of 0.149, a relative viability ([15]; first compound 0.002 µM) of 0.843 and a relative viability ([15]; first compound 0.006325 µM) of 0.811. For the same molecule, the relative viability ([15]; first compound 0.02 µM) was 0.991, the relative viability ([15]; first compound 0.06325 µM) was 0.245 and the relative viability ([15]; first compound 0.2 µM) was 0.207. For the same molecule, the relative viability ([16]; first compound 0.002 µM) was 0.574, the relative viability ([16]; first compound 0.006325 µM) was 0.486 and the relative viability ([16]; first compound 0.02 µM) was 0.357. The relative viability ([16]; first compound 0.06325 µM) was 0.172, the relative viability ([16]; first compound 0.2 µM) was 0.144 and the relative viability ([17]; first compound 0.002 µM) was 1.03. It also gave a relative viability ([17]; first compound 0.006325 µM) of 0.988, a relative viability ([17]; first compound 0.02 µM) of 0.872 and a relative viability ([17]; first compound 0.06325 µM) of 1.08. It also gave a relative viability ([17]; first compound 0.2 µM) of 1.01, a relative viability ([18]; first compound 0.002 µM) of 0.862 and a relative viability ([18]; first compound 0.006325 µM) of 0.64. It also gave a relative viability ([18]; first compound 0.02 µM) of 0.0374, a relative viability ([18]; first compound 0.06325 µM) of 0.0101 and a relative viability ([18]; first compound 0.2 µM) of 0.0074. For the same molecule, the relative viability ([19]; first compound 0.002 µM) was 0.652, the relative viability ([19]; first compound 0.006325 µM) was 0.575 and the relative viability ([19]; first compound 0.02 µM) was 0.732. For the same molecule, the relative viability ([19]; first compound 0.06325 µM) was 0.0892, the relative viability ([19]; first compound 0.2 µM) was 0.0832 and the relative viability ([20]; first compound 0.002 µM) was 0.68. For the same molecule, the relative viability ([20]; first compound 0.006325 µM) was 0.714, the relative viability ([20]; first compound 0.02 µM) was 0.684 and the relative viability ([20]; first compound 0.06325 µM) was 0.251. The relative viability ([20]; first compound 0.2 µM) was 0.158, the relative viability ([21]; first compound 0.002 µM) was 0.837 and the relative viability ([21]; first compound 0.006325 µM) was 0.873. The relative viability ([21]; first compound 0.02 µM) was 0.929, the relative viability ([21]; first compound 0.06325 µM) was 0.57 and the relative viability ([21]; first compound 0.2 µM) was 0.519.
